Experimental data reported in ChEMBL document CHEMBL5050844 (2019).
Each block holds one molecule with its values, some of them ahead of it.

How the values were obtained:
[1] = Induction of anti-CD3 antibodies-stimulated human T cell activation at 1 uM assessed fold increase in CD25 expression measured by ELISA assay; type: functional, T cell line; note: reference of the scale not given here
[2] = Induction of anti-CD3 antibodies-stimulated human T cell activation at 1 uM assessed fold increase in IL-2 secretion measured by ELISA assay; type: functional, T cell line; note: reference of the scale not given here
[3] = target: E3 ubiquitin-protein ligase CBL-B (Homo sapiens, UniProt Q13191); test: Inhibition of N-terminal Avi-tagged human CBL-B (36 to 427 residues) incubated with 60 nM Src kinase for 1.5 hrs followed by incubation with fluorescently labeled UbcH5B-Ub for 1 hr and measured by TR-FRET assay; type: single protein
E3 ubiquitin-protein ligase CBL-B, sequence (Q13191 whole entry, the tested form may be a part): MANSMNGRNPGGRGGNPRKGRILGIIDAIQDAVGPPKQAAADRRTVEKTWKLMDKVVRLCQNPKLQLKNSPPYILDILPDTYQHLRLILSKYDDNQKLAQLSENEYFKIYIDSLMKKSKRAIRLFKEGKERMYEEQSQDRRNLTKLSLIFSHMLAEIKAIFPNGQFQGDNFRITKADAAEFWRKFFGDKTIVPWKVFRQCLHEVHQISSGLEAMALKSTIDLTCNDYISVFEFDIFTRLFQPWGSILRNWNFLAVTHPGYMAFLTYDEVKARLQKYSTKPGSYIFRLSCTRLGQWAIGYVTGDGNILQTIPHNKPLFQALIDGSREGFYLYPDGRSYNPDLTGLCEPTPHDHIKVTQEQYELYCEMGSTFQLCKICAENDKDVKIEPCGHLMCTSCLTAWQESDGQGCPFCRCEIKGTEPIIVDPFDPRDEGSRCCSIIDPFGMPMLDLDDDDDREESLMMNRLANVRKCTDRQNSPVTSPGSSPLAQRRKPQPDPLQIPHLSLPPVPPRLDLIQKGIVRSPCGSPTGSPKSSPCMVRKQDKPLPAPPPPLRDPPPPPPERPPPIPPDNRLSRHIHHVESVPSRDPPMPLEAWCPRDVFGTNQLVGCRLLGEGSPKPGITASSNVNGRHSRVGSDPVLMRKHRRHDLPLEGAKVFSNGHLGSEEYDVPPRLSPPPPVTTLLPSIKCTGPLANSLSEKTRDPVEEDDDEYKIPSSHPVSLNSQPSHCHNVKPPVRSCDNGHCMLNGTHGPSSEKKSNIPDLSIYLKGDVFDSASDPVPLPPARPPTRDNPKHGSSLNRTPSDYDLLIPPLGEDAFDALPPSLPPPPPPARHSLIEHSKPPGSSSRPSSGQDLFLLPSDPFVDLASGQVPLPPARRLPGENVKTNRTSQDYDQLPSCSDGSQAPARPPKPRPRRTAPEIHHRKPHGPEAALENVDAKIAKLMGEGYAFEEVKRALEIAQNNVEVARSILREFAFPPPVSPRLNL

[4] = Induction of anti-CD3/CD28 antibodies-stimulated human T cell activation at 1 uM assessed fold increase in IL-2 secretion measured by ELISA assay; type: functional, T cell line
[5] = Induction of anti-CD3/CD28 antibodies-stimulated human T cell activation at 1 uM assessed fold increase in CD25 expression measured by ELISA assay; type: functional, T cell line
[6] = Induction of anti-CD3/CD28 antibodies-stimulated human T cell activation at 0.3 uM assessed fold increase in IL-2 secretion measured by ELISA assay; type: functional, T cell line
[7] = Induction of anti-CD3/CD28 antibodies-stimulated human T cell activation at 0.3 uM assessed fold increase in CD25 expression measured by ELISA assay; type: functional, T cell line

IC50 [3]: < 0.1 µM
SMILES: Cn1cnnc1CC1(c2cccc(NC(=O)c3cc(CN4CC[C@H](O)C4)nc(C4CC4)n3)c2)COC1
fold change (FC) [1]: 0.601
fold change (FC) [2]: 0.051
fold change (FC) [4]: 2.51
fold change (FC) [5]: 1.01
fold change (FC) [6]: 1.01
fold change (FC) [7]: 1.01

IC50 [3]: < 0.1 µM
SMILES: CN1CC2CC1CN2c1cc2c(c(C(F)(F)F)c1)CN(c1cccc([C@@](C)(F)C(F)(F)c3nncn3C)c1)C2=O (single isomer, unassigned; 563)
fold change (FC) [1]: 0.801
fold change (FC) [2]: 0.051
fold change (FC) [4]: 2.51
fold change (FC) [5]: 1.31
fold change (FC) [6]: 1.01
fold change (FC) [7]: 1.01

IC50 [3]: < 0.1 µM
SMILES: Cn1cc2c(n1)CCCN2Cc1cc2c(c(C(F)(F)F)c1)CN(c1cccc(C3(Cc4nncn4C)COC3)c1)C2=O
fold change (FC) [1]: >=1.001
fold change (FC) [2]: >=0.201
fold change (FC) [4]: >=7.5
fold change (FC) [5]: 1.31
fold change (FC) [6]: 5
fold change (FC) [7]: 1.01

IC50 [3]: < 0.1 µM
SMILES: Cn1cnnc1CC1(c2cccc(N3Cc4c(cc(CN5CCC6(CC5)CC6)cc4C(F)(F)F)C3=O)c2)COC1
fold change (FC) [1]: >=1.001
fold change (FC) [2]: >=0.201
fold change (FC) [4]: >=7.5
fold change (FC) [5]: 1.51
fold change (FC) [6]: >=7.5
fold change (FC) [7]: 1.51

IC50 [3]: < 0.1 µM
SMILES: Cn1cnnc1CC1(c2cccc(N3Cc4c(cc(N5CCNC6(CC6)C5)cc4C(F)(F)F)C3=O)c2)COC1
fold change (FC) [1]: >=1.001
fold change (FC) [2]: 0.101
fold change (FC) [4]: >=7.5
fold change (FC) [5]: 1.31
fold change (FC) [6]: >=7.5
fold change (FC) [7]: 1.31

IC50 [3]: < 0.1 µM
SMILES: C[C@@H](c1cc2c(c(C(F)(F)F)c1)CN(c1cccc(C3(Cc4nncn4C)COC3)c1)C2=O)N1CC(C)(F)C1
fold change (FC) [1]: >=1.001
fold change (FC) [2]: >=0.201
fold change (FC) [4]: >=7.5
fold change (FC) [5]: 1.51
fold change (FC) [6]: 2.51
fold change (FC) [7]: 1.31

IC50 [3]: < 0.1 µM
SMILES: Cn1cnnc1CC1(c2cccc(N3Cc4c(cc(CN5CC(F)C5(C)C)cc4C(F)(F)F)C3=O)c2)COC1 (stereo not given)
fold change (FC) [1]: >=1.001
fold change (FC) [2]: 0.101
fold change (FC) [4]: 5
fold change (FC) [5]: 1.31
fold change (FC) [6]: 2.51
fold change (FC) [7]: 1.31

SMILES: Cn1cnnc1[C@@H](F)C1(c2cccc(N3Cc4c(cc(CN5C6CCCC5CC6)cc4C(F)(F)F)C3=O)c2)COC1 (stereo in doubt; 671a)
fold change (FC) ([1]; 1 µM): 0.601
fold change (FC) ([2]; 1 µM): >=0.201
IC50 [3]: < 0.1 µM
fold change (FC) [4]: 5
fold change (FC) ([5]; 1 µM): >=1.76
fold change (FC) [6]: 2.51
fold change (FC) ([7]; 0.3 µM): 1.51

SMILES: Cn1cnnc1[C@H](F)C1(c2cccc(N3Cc4c(cc(CN5C6CCCC5CC6)cc4C(F)(F)F)C3=O)c2)COC1 (stereo in doubt; 671b)
fold change (FC) [1]: >=1.001
fold change (FC) [2]: >=0.201
IC50 [3]: < 0.1 µM
fold change (FC) [4]: >=7.5
fold change (FC) ([5]; 1 µM): >=1.76
fold change (FC) [6]: >=7.5
fold change (FC) ([7]; 0.3 µM): >=1.76

IC50 [3]: < 0.1 µM
SMILES: Cn1cnnc1CC1(c2cccc(N3Cc4c(cc(CN5Cc6cccc(C#N)c6C5)cc4C(F)(F)F)C3=O)c2)COC1

IC50 [3]: < 0.1 µM
SMILES: COC[C@@H]1CN(Cc2cc3c(c(C(F)(F)F)c2)CN(c2cccc(C4(Cc5nncn5C)COC4)c2)C3=O)CCO1

IC50 [3]: < 0.1 µM
SMILES: Cn1cnnc1CC1(c2cccc(N3Cc4c(cc(CN5CCOC(CCF)C5)cc4C(F)(F)F)C3=O)c2)COC1 (stereo not given)

IC50 [3]: > 10 µM
SMILES: Cc1nnnn1CC(C)c1cccc(NC(=O)c2cccc(C(F)(F)F)n2)c1 (stereo not given)

IC50 [3]: < 0.1 µM
SMILES: Cn1cnnc1CC1(c2cccc(N3Cc4c(cc(CN5CCOC(CF)C5)cc4C(F)(F)F)C3=O)c2)COC1 (stereo not given)

IC50 [3]: < 0.1 µM
SMILES: Cn1cnnc1CC1(c2cccc(N3Cc4c(cc(C5CCCOC5)cc4C(F)(F)F)C3=O)c2)COC1 (stereo not given)

IC50 [3]: < 0.1 µM
SMILES: COc1ccc2c(c1)CN(Cc1cc3c(c(C(F)(F)F)c1)CN(c1cccc(C4(Cc5nncn5C)COC4)c1)C3=O)CC2

IC50 [3]: < 0.1 µM
SMILES: Cn1cnnc1CC1(c2cccc(N3Cc4c(cc(CN5CCC(F)CC5)cc4C4CC4)C3=O)c2)COC1

IC50 [3]: < 0.1 µM
SMILES: Cn1cnnc1CC1(c2cccc(N3Cc4c(cc(CN5CC[C@@H](c6ccccc6)C5)cc4C(F)(F)F)C3=O)c2)COC1

SMILES: Cn1cnnc1CC1(c2cccc(N3Cc4c(cc(CN5CC6CC(C5)C6(F)F)cc4C(F)(F)F)C3=O)c2)COC1
IC50 [3]: < 0.1 µM

IC50 [3]: < 0.1 µM
SMILES: CC(c1cc2c(c(C(F)(F)F)c1)CN(c1cccc(C3(C(F)(F)c4nncn4C)COC3)c1)C2=O)N1CC[C@H](F)C1 (stereo not given in full)

IC50 [3]: < 0.1 µM
SMILES: Cn1cnnc1CC1(c2cccc(N3Cc4c(cc(CN5CC[C@@H]6NCCO[C@@H]6C5)cc4C(F)(F)F)C3=O)c2)COC1 (relative stereo)

IC50 [3]: < 0.1 µM
SMILES: Cn1cnnc1CC1(c2cccc(N3Cc4c(cc(CN5CCOC6(CCOC6)C5)cc4C(F)(F)F)C3=O)c2)COC1 (stereo not given)

IC50 [3]: < 0.1 µM
SMILES: C[C@@H]1CN(Cc2cc3c(c(C(F)(F)F)c2)CN(c2cccc(-c4c(-c5nncn5C)cnn4C)c2)C3=O)CCO1

IC50 [3]: < 0.1 µM
SMILES: Cc1cc(C(=O)Nc2cccc(C3(Cc4[nH]ncc4C)COC3)c2)nc(C2CC2)n1

IC50 [3]: < 0.1 µM
SMILES: CC(c1cc(C(=O)Nc2cccc(C3(Cc4nncn4C)COC3)c2)nc(C2CC2)n1)N1CCC2(CC2)C1 (single isomer, unassigned; 592b)

IC50 [3]: < 0.1 µM
SMILES: C[C@@H]1CN(Cc2cc3c(c(C(F)(F)F)c2)CN(c2cccc(C4(Cc5nncn5C)COC4)c2)C3=O)C[C@H](C)O1

IC50 [3]: < 0.1 µM
SMILES: Cn1cnnc1CC1(c2cccc(N3Cc4c(cc(CN5CCc6ccncc6C5)cc4C(F)(F)F)C3=O)c2)COC1

IC50 [3]: < 0.1 µM
SMILES: CN(c1cc2c(c(C(F)(F)F)c1)CN(c1cccc([C@@](C)(F)C(F)(F)c3nncn3C)c1)C2=O)[C@@H]1CNC[C@H]1F

IC50 [3]: > 10 µM
SMILES: Cc1cn(C)c(SC(C)c2ccnc(NC(=O)c3ccc4ccccc4n3)c2)n1 (stereo not given)

IC50 [3]: < 0.1 µM
SMILES: Cn1cnnc1CC1(c2cccc(N3Cc4c(cc(C(O)C(F)(F)F)cc4C(F)(F)F)C3=O)c2)COC1 (stereo not given)

IC50 [3]: < 0.1 µM
SMILES: C[C@@H]1CN(Cc2cc3c(c(C(F)(F)F)c2)CN(c2cccc(-c4c(-c5nncn5C)cnn4C)c2)C3=O)C[C@H](C)O1

IC50 [3]: < 0.1 µM
SMILES: Cn1cnnc1CC1(c2cccc(N3Cc4c(cc(CN5Cc6cccc(Cl)c6C5)cc4C(F)(F)F)C3=O)c2)COC1

IC50 [3]: < 0.1 µM
SMILES: Cn1cnnc1CC1(c2cccc(N3Cc4c(cc(CC5CNCCC5=O)cc4C(F)(F)F)C3=O)c2)COC1 (stereo not given)

IC50 [3]: < 0.1 µM
SMILES: CC(C)C1CN(Cc2cc3c(c(C(F)(F)F)c2)CN(c2cccc(C4(Cc5nncn5C)COC4)c2)C3=O)CCO1 (stereo not given)

IC50 [3]: < 0.1 µM
SMILES: Cn1cnnc1CC1(c2cccc(N3Cc4c(cc(CN5CCOC(CC(F)(F)F)C5)cc4C(F)(F)F)C3=O)c2)COC1 (stereo not given)

IC50 [3]: < 0.1 µM
SMILES: Cn1cnnc1CC1(c2cccc(N3Cc4c(cc(CN5CCOC(C)(C)C5)cc4C(F)(F)F)C3=O)c2)COC1

IC50 [3]: < 0.1 µM
SMILES: Cn1cnnc1CC1(c2cccc(N3Cc4c(cc(CN5CC[C@@H](F)[C@H](F)C5)cc4C(F)(F)F)C3=O)c2)COC1

IC50 [3]: < 0.1 µM
SMILES: Cn1cnnc1CC1(c2cccc(N3Cc4c(cc(CN5CCc6cc(C#N)ccc6C5)cc4C(F)(F)F)C3=O)c2)COC1

IC50 [3]: < 0.1 µM
SMILES: C[C@@H]1CCN(Cc2cc3c(c(C(F)(F)F)c2)CN(c2cccc(C4(Cc5nncn5C)COC4)c2)C3=O)C[C@@H]1F

IC50 [3]: < 0.1 µM
SMILES: Cn1cnnc1CC1(c2cccc(N3Cc4c(cc(CN5CCOC(C6CC6)C5)cc4C(F)(F)F)C3=O)c2)COC1 (stereo not given)

IC50 [3]: < 0.1 µM
SMILES: Cn1cnnc1CC1(c2cccc(N3Cc4c(cc(CN5CCN6C(=O)CCC6C5)cc4C(F)(F)F)C3=O)c2)COC1 (stereo not given)
